Consider twelve compounds from US12221444B2, “5,6,7,7a-tetrahydrocyclopenta[f]pyrido[1,2-h][1,7]naphthyridin-11(4bH)-one compounds and methods of use” (GLAXOSMITHKLINE INTELLECTUAL, priority 2017, dated 2025).

Data set [1] concerns HepAD38 cells. Description: HepAD38 cells cytotoxicity assay (CellTiter-Glo Luminescent Cell Viability Assay). Format: cell-based. The settings on record: 7 days total treatment, read-out: Cell tox (EC50, ηM). How it is done: (§1) Example 36 HepAD38 Cells—HBsAg ELISA and Cytotoxicity Assays
(§2) HepAD38 cells are maintained in collagen-coated flasks in cell culture medium (DMEM/F12 containing 10% fetal bovine serum (FBS), GlutaMax-1, penicillin/streptomycin, non-essential amino acids, Na pyruvate, 250 μg/mL geneticin, and 1 μg/mL doxycycline). Compound solutions are prepared in DMSO and compound are serially diluted for final concentrations of 4000, 1000, 250, 62.5, 15.6, 3.91, 0.977, 0.244, 0.061, and 0.015 ηM. The cells are then trypsinized and the cells are plate at 10,000 cells per well. Incubate plates are incubated at 37° C., 5% CO2 for 4 days. Media is replaced with new media with compound treatment. The plates are then incubated at 37° C., 5% CO2 for an additional 3 days for a total treatment time of 7 days. For antiviral response, HBsAg was measured using the HBsAg ELISA kit (International Immuno-diagnostics) with instructions provided. 100 uL of cell media samples was used for ELISA. The absorbance was read on the Spectramax® 384 plate reader (Molecular Devices) at 450 nm. For cell toxicity, the cells were used for CellTiter-Glo® Luminescent Cell Viability Assay reagent (Promega). The luminescence was read on Envision Multilabel Reader (Perkin Elmer). The data was analyzed compared to the DMSO control. % inhibition=(1−(unknown/high control))*100
(§3) The average % inhibition values from duplicate assay plates are then plotted in GraphPad Prism to determine one IC value: Four-parameter logistic curve with equation Y=Bottom+(Top-Bottom)/(1+10^((Log IC50−X)*HillSlope)) pIC50=[…]
Background: In ATP-based viability assays light output follows the ATP content of the culture.

In data set [2] the test system is HBs antigens (HBsAg). In words: HepAD38 cells HBsAg ELISA. Format: cell-based, Hepatitis B virus. The settings on record: read-out: HepAD38, HBsAg (EC50), 7 days total treatment, HBsAg ELISA of cell media. As for the experimental part: as §1, §2, §3
A short description of data set [3]: HepAD38 cells cytotoxicity assay (CellTiter-Glo Luminescent Cell Viability Assay). The format is cell-based. The settings on record: human, 7 days total treatment, read-out: Cell tox (EC50, ηM). How it is done: as §1, §2, §3

Usually EC50 stands for the concentration needed to bring the measured effect to its halfway point. `COCCCOc1cc2c(nc1C1CC1)-c1cc(=O)c(C(=O)O)cn1C(C)(C(C)C)C2` (single isomer, unassigned; isomer-2) [Example 29, 2-Cyclopropyl-6-isopropyl-3-(3-methoxypropoxy)-6-methyl-10-oxo-5,10-dihydro-6H-pyrido[1,2-h][1,7]naphthyridine-9-carboxylic acid-Isomer-2]: the EC50 in data set [1] is more than 4 µM; in data set [2], 0.01 to 0.1 µM.
On the same counts, the results for `CC(C)C1(C)Cc2cc(OCC3CC3)c(Cl)nc2-c2cc(=O)c(C(=O)O)cn21` (single isomer, unassigned; isomer-2) [Example 27, (2-Chloro-3-(cyclopropylmethoxy)-6-isopropyl-6-methyl-10-oxo-5,10-dihydro-6H-pyrido[1,2-h][1,7]naphthyridine-9-carboxylic acid-Isomer-2] are more than 4 µM and more than 0.1 µM.
As for `COCCCOc1cc2c(nc1CO)-c1cc(=O)c(C(=O)O)cn1[C@H](C(C)(C)C)C2` [Example 24, (S)-6-(tert-Butyl)-2-(hydroxymethyl)-3-(3-methoxypropoxy)-10-oxo-5,10-dihydro-6H-pyrido[1,2-h][1,7]naphthyridine-9-carboxylic acid], the EC50 at 7 days in data set [3] was more than 4 µM. In data set [2], the EC50 fell in the range of 0.001 to 0.01 µM.
As to `CC(C)(C)C1Cc2cc(OCC3CC3)c(Cl)nc2-c2cc(=O)c(C(=O)O)cn21` (single isomer, unassigned; isomer 1) [Example 30-A, 6-(tert-Butyl)-2-chloro-3-(cyclopropylmethoxy)-10-oxo-6,10-dihydro-5H-pyrido[1,2-h][1,7]naphthyridine-9-carboxylic acid (isomer 1)], the 50% effective concentration (EC50) was more than 4 µM in data set [1] and less than 0.001 µM in data set [2].
Take `COCCCOc1cc2c(nc1Cl)-c1cc(=O)c(C(=O)O)cn1[C@@H]1C(C)(C)CCC21O` (stereo partly drawn) [Example 6, (7aR)-2-Chloro-4b-hydroxy-3-(3-methoxypropoxy)-7,7-dimethyl-11-oxo-4b,5,6,7,7a,11-hexahydrocyclopenta[f]pyrido[1,2-h][1,7]naphthyridine-10-carboxylic acid]: the EC50 at 7 days in data set [3] is more than 4 µM. Moreover, the EC50 in data set [2] lay within 0.01 to 0.1 µM.
On to `COCCCOc1cc2c(nc1Cl)-c1cc(=O)c(C(=O)O)c(C)n1[C@H](C(C)(C)C)C2` [Example 23, (S)-6-(tert-Butyl)-2-chloro-3-(3-methoxypropoxy)-8-methyl-10-oxo-6,10-dihydro-5H-pyrido[1,2-h][1,7]naphthyridine-9-carboxylic acid], for which, in data set [3], the EC50 at 7 days is more than 4 µM. The EC50 in data set [2] was more than 0.1 µM.
Take `COCCCOc1cc2c(nc1C1CC1)-c1cc(=O)c(C(=O)O)cn1C(C)(C(C)C)C2` (single isomer, unassigned; isomer-1) [Example 28, 2-Cyclopropyl-6-isopropyl-3-(3-methoxypropoxy)-6-methyl-10-oxo-5,10-dihydro-6H-pyrido[1,2-h][1,7]naphthyridine-9-carboxylic acid-Isomer-1]: in data set [3], the EC50 at 7 days was more than 4 µM. For the same compound, the EC50 in data set [2] is less than 0.001 µM.
For the compound `CC(C)(C)C1Cc2cc(OCC3CC3)c(Cl)nc2-c2cc(=O)c(C(=O)O)cn21` (racemic) [Example 30, 6-(tert-Butyl)-2-chloro-3-(cyclopropylmethoxy)-10-oxo-6,10-dihydro-5H-pyrido[1,2-h][1,7]naphthyridine-9-carboxylic acid], in data set [3], the EC50 at 7 days is more than 4 µM. Further, the EC50 in data set [2] lay within 0.001 to 0.01 µM.
Turning to `CC(C)(C)[C@@H]1Cc2cc(OCC3CC3)c(O)nc2-c2cc(=O)c(C(=O)O)cn21` [Example 18, (S)-6-(tert-Butyl)-3-(cyclopropylmethoxy)-2-hydroxy-10-oxo-6,10-dihydro-5H-pyrido[1,2-h][1,7]naphthyridine-9-carboxylic acid], the half-maximal effective concentration (EC50) at 7 days in data set [3] was more than 4 µM. Moreover, the EC50 in data set [2] was more than 0.1 µM.
For `CC1(C)CC[C@@H]2c3cc(O)c(Cl)nc3-c3cc(=O)c(C(=O)O)cn3[C@@H]21` [Example 9, (4bR,7aS)-2-Chloro-3-hydroxy-7,7-dimethyl-11-oxo-4b,5,6,7,7a,11-hexahydrocyclopenta[f]pyrido[1,2-h][1,7]naphthyridine-10-carboxylic acid], in data set [3], the EC50 at 7 days is more than 4 µM. Besides, in data set [2], the EC50 was more than 0.1 µM.
On the same counts, the results for `COCCCOc1cc2c(nc1Cl)-c1cc(=O)c(C(=O)O)cn1[C@@H]1C(C)(C)CCC21OC` (stereo partly drawn) [Example 7, (7aR)-2-Chloro-4b-methoxy-3-(3-methoxypropoxy)-7,7-dimethyl-11-oxo-4b,5,6,7,7a,11-hexahydrocyclopenta[f]pyrido[1,2-h][1,7]naphthyridine-10-carboxylic acid] are more than 4 µM and 0.01 to 0.1 µM.
For `COCCCOc1cc2c(nc1O)-c1cc(=O)c(C(=O)O)cn1[C@H](C(C)(C)C)C2` [Example 20, (S)-6-(tert-Butyl)-2-hydroxy-3-(3-methoxypropoxy)-10-oxo-6,10-dihydro-5H-pyrido[1,2-h][1,7]naphthyridine-9-carboxylic acid], the EC50 at 7 days in data set [3] is more than 4 µM. The EC50 in data set [2] was more than 0.1 µM.
